Measurements as given in patent US8039532B2, “Heterocyclic compound, ultraviolet absorbent and composition containing the same” (Fujifilm Corporation, priority 2007, dated 2011).

Experiments:
Format in all cases: physicochemical
[1] = UV spectrum of sample solutions in ethyl acetate (Example 38); details: ethyl acetate solution, 1 cm quartz cell
Procedure: The absorption maximum wavelength and the half width specified in the present invention can be determined easily by a skilled person in the art. The measuring methods are described, for example, in Chemical Society of Japan Ed., “Experimental Chemistry Lecture, Chapter 7, Spectroscopy II”, 4th Ed., (Maruzen, 1992), p. 180 to 186. Specifically, they are determined by dissolving a sample in a suitable solvent and measuring the spectrum in a spectrophotometer by using two quartz or glass cells for the sample and control. For example, the solvent for use is required to be capable of dissolving the sample, have no absorption in the measurement wavelength range, have smaller interaction with the solute molecule, and have relatively low volatility. Any solvent may be used, as long as it satisfies the conditions above. In the present invention, the measurement is made by using ethyl acetate (EtOAc) as the solvent.
The absorption maximum wavelength and the half width of the dyes in the present invention are determined by preparing a solution in ethyl acetate as the solvent at a concentration of approximately 5×10^−5 mol·dm^−3 and by measurement while using a quartz cell having an optical path length of 10 mm.
The spectral half width is described, for example, in Chemical Society of Japan Ed., “Experimental Chemistry Lecture, Chapter 3 Basic Operation III”, 4th Ed., (Maruzen, 1991), p. 154. The half width is described in the literature above by using wave number as abscissa, but the half width is plotted against wavelength in the present invention and thus, the unit of the half value width is nm. Specifically, it is defined as the width of the absorption band at an absorbance of ½ of that at the absorption maximum wavelength and used as an indicator of the absorption spectral shape.
One mg of the Exemplified Compound (1) was dissolved in 100 ml of ethyl acetate, to give a sample solution. Similarly, sample solutions of Exemplified Compounds (2), (11), (12), (24), (81), (82), (87) and (88), respectively, were prepared. In addition, two mg of the comparative compound 1 was dissolved in 100 ml of ethyl acetate, to give a sample solution. Similarly, sample solutions of the comparative compounds 2 (the exemplified compound VIII described in JP-B-49-11155), 11 and 12, respectively, were also prepared. The UV spectrum of each sample solution was determined in a 1 cm quartz cell by using Spectrophotometer UV-3600 (product name) manufactured by Shimadzu Corporation. Based on the thus-obtained spectrum chart, were calculated the maximum absorption wavelength, the molar extinction coefficient (ε) at the maximum absorption wavelength and the half width (a width of absorption band corresponding to a half extinction at the maximum absorption wavelength).

[2] = Degree of coloring of UV agent-containing polyethylene terephthalate films (Example 43); parameters: key to Colored (visual): ∘: Not colored; Δ: Slightly colored; x: Distinctly colored; details: PET film 50 μm; for absorbance at 420 nm / absorbance at 440 nm / absorbance at 460 nm: quantity giving 1% at 400 nm; for Colored (visual): visual examination; for absorbance at 400 nm: quantity adjusted so that value at 400 nm became 1%
Procedure: To 15 g of polyethylene terephthalate, the exemplified compounds (81) and (82) were added, respectively, in a quantity such that absorbance at 400 nm became 1% at the time of forming a film with a thickness of 50 μm. After fusion mixing at 265° C., UV agent-containing polymer films (401) and (402) were prepared by cooling and stretching. Further, UV agent-containing polymer films (403) and (404) were prepared by mixing and thin film-making in the same manner as the above films, except that a comparative compound Za and the abovementioned comparative compound 12 were used in place of the exemplified compounds.
A degree of coloring in each of the prepared samples was evaluated by measuring absorbance of the sample at 420 nm 440 nm and 460 nm, and also by examining them visually.

[3] = Light fastness of ethyl acetate solutions under xenon lamp irradiation (Example 39); details: ethyl acetate solution, xenon lamp with UV filter removed, 170,000 lux, one week; transmittance at maximum absorption wavelength
Procedure: Was dissolved 5 mg of the exemplified compound (1) in 100 mL of ethyl acetate and then the resulting solution was diluted with ethyl acetate so that absorbance became the range of from 0.95 to 1.05. Similarly, sample solutions of Exemplified Compounds (2), (11), (12), (24), (81) and (82) and comparative compounds A and B, respectively, were prepared. The absorbance of each sample solution was determined in a 1 cm quartz cell by using Spectrophotometer UV-3600 (product name) manufactured by Shimadzu Corporation. The cell containing the sample solution was photoirradiated by a xenon lamp with its UV filter removed at an illuminance of 170,000 lux, and the amount of each ultraviolet absorbent remaining after irradiation for one week was determined. The residual amount was calculated according to the following Formula: Residual amount (%)=100×(100−Transmittance after irradiation)/(100−Transmittance before irradiation)
The transmittance is a value determined at the maximum absorption wavelength of each compound.

| Compound | Half width (nm) [1] [nm] | ε, molar extinction coefficient at the maximum absorption wavelength [1] | λmax (nm), maximum absorption wavelength [1] [nm] | coloring of the film (in words) [2] | absorbance at 420 nm [2] [%] | absorbance at 440 nm [2] [%] | absorbance at 460 nm [2] [%] | Colored (visual) [2] | absorbance at 400 nm [2] [%] | Residual amount (%) [3] [%] |
| --- | --- | --- | --- | --- | --- | --- | --- | --- | --- | --- |
| CCCCC(CC)C(=O)Oc1ccc(OC(=O)C(CC)CCCC)c2c1SC(=C(C#N)C#N)S2 (centres unmarked) [Comparative compound 1] | 45 | 24000 | 369 |  |  |  |  |  |  |  |
| CCCCCCCCCCCCOc1ccc(OCCCCCCCCCCCC)c2c1SC(=C(C#N)C#N)S2 [Comparative compound 2] | 46 | 23000 | 363 |  |  |  |  |  |  |  |
| CCCCC(CC)COc1ccc(OCC(CC)CCCC)c2c1SC(=C(C#N)C(=O)OCC)S2 (centres unmarked) [Comparative compound 12] | 39 | 28000 | 360 | coloring was also observed | 65 | 72 | 78 | Δ to x | 1 |  |
| COc1ccc(C(=O)c2ccc(OC)cc2O)c(O)c1 [Comparative compound A] |  |  |  |  |  |  |  |  |  | 76 |
| COc1ccc(C(=O)CC(=O)c2ccc(C(C)(C)C)cc2)cc1 [Comparative compound B] |  |  |  |  |  |  |  |  |  | 38 |
| CC(C)(C)CC(C)(C)c1cc(Cc2cc(C(C)(C)CC(C)(C)C)cc(-n3nc4ccccc4n3)c2O)c(O)c(-n2nc3ccccc3n2)c1 [Za] |  |  |  | more colored yellow | 45 | 65 | 85 | x | 1 |  |
